Paper PMC4349132 (Medchemcomm, 2014)

Assays:
G9a = G9a (Homo sapiens, UniProt Q96KQ7); conditions: SPA assay
[1] = Henderson–Hasselbalch equation, assay conditions pH 8
[2] = molecular target: GLP (G9a-like protein, EHMT1) (Homo sapiens, UniProt Q9H9B1); conditions: compared with G9a
SETD2 = SETD2 (Homo sapiens, UniProt Q9BYW2); conditions: at the highest concentrations surveyed (50 μM)
EZH2 = EZH2 (Homo sapiens, UniProt Q15910); conditions: at the highest concentrations surveyed (50 μM)
[3] = system: all other methyltransferases in the panel; conditions: panel other than G9a, GLP, SETD2, EZH2

Sequence of GLP (G9a-like protein, EHMT1) (Q9H9B1 whole entry): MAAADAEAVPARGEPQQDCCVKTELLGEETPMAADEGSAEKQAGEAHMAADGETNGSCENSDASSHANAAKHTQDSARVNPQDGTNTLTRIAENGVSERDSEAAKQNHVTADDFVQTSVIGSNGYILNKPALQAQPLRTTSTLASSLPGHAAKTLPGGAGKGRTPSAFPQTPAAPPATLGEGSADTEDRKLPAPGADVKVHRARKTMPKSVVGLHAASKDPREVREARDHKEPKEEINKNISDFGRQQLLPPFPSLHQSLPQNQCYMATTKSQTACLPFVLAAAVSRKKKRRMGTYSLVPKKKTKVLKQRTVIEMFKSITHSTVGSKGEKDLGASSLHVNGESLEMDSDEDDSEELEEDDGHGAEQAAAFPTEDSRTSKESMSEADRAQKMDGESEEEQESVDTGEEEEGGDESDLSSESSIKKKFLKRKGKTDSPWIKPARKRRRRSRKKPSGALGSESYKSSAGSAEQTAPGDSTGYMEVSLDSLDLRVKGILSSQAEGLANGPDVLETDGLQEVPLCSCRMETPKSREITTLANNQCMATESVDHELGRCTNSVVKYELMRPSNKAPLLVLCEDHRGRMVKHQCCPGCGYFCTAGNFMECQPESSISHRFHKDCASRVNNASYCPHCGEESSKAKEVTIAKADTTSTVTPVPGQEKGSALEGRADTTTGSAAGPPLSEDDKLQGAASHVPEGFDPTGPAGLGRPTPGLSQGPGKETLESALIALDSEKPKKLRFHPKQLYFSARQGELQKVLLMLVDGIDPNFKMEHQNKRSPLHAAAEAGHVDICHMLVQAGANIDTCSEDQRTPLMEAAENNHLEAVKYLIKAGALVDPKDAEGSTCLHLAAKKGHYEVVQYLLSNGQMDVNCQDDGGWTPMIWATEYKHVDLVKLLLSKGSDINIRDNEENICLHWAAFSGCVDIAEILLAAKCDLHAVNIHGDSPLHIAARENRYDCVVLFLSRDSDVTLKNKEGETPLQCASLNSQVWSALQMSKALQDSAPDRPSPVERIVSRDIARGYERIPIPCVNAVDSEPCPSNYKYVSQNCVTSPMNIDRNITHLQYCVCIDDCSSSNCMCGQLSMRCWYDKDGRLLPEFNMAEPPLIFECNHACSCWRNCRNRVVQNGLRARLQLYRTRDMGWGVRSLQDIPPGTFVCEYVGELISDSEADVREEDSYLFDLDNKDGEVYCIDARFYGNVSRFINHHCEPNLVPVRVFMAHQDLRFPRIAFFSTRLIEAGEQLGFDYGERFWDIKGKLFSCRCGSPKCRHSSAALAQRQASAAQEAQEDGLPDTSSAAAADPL
Sequence of EZH2 (Q15910 whole entry, species assumed): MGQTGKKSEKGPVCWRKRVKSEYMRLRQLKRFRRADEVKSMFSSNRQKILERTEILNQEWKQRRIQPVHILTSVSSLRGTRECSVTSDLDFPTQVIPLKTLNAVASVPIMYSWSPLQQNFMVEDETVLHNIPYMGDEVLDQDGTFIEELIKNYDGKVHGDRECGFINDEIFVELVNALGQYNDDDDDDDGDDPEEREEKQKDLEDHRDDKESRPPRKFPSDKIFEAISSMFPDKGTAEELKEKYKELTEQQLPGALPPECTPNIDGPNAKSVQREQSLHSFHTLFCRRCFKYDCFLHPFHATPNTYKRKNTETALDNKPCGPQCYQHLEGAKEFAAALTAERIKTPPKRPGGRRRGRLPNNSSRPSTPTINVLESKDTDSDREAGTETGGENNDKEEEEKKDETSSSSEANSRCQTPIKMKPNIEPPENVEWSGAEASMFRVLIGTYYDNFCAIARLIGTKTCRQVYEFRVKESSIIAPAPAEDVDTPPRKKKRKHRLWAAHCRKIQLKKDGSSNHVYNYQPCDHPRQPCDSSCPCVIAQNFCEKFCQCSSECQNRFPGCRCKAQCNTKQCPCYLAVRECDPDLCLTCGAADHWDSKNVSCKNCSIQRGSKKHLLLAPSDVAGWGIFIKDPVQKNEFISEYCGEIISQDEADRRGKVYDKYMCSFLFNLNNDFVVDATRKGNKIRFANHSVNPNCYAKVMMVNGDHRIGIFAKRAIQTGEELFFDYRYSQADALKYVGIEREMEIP
Sequence of EZH2 (O75530 whole entry partner, species assumed): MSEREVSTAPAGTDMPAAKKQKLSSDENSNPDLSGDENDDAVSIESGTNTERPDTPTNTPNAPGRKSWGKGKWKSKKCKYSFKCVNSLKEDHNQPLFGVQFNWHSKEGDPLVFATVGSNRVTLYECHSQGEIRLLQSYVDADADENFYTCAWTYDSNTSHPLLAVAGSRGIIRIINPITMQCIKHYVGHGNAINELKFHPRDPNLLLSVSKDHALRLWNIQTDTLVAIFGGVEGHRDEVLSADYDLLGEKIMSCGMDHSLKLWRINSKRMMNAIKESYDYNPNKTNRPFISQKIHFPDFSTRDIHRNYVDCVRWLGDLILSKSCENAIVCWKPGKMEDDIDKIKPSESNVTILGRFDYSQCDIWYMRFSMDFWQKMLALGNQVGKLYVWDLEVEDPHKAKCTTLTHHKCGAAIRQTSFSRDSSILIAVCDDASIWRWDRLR
Sequence of EZH2 (Q15022 whole entry partner, species assumed): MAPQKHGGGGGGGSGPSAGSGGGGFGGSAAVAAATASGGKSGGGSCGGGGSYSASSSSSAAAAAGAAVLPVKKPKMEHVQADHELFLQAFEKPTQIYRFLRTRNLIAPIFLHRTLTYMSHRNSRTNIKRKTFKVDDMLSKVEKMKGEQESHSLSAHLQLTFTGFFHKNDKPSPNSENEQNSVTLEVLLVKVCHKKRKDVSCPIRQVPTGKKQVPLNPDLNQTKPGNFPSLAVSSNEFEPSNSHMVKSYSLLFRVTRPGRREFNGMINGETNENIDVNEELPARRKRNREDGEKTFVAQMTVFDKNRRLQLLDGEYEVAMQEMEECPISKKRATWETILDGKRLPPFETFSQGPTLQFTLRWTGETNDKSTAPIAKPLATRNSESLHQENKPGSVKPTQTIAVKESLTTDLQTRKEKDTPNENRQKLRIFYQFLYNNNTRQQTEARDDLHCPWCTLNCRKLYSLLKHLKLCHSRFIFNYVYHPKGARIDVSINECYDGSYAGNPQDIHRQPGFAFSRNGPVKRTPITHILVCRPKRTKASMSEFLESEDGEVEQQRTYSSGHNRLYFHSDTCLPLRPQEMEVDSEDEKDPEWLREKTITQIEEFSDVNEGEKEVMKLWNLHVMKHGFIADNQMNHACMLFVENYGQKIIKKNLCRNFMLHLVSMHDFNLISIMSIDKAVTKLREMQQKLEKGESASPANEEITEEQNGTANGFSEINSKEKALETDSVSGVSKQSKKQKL
Sequence of G9a (Q96KQ7 whole entry): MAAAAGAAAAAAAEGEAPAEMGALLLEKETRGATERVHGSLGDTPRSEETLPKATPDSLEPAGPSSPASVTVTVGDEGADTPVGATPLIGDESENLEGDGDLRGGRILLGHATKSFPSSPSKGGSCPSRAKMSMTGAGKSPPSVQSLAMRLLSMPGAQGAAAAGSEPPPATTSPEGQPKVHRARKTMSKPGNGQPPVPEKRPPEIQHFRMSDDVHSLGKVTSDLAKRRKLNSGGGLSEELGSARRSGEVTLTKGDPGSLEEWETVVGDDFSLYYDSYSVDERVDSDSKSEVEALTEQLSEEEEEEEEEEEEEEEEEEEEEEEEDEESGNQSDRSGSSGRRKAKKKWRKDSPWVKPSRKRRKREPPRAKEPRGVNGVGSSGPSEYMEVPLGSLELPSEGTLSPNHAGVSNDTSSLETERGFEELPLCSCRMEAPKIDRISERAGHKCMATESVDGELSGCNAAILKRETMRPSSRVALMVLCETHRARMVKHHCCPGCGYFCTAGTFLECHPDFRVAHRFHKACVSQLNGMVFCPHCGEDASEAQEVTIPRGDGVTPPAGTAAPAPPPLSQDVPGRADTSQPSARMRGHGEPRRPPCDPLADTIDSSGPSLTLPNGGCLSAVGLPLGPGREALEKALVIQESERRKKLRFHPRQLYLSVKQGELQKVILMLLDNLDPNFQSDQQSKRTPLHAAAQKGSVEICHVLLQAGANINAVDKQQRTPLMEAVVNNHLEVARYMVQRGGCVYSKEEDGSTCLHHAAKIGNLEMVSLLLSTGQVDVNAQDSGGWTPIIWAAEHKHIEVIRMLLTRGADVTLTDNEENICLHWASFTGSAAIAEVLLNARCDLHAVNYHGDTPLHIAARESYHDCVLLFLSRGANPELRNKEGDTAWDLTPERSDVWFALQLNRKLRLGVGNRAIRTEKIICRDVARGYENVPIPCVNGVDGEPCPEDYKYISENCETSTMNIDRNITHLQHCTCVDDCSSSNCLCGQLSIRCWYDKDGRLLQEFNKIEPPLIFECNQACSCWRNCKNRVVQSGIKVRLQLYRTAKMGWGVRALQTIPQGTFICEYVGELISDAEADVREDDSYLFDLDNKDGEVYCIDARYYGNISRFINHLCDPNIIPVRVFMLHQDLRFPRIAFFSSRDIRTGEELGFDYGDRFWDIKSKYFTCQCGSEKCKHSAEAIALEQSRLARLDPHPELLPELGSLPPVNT

| G9a inhibitory activity (in words) (G9a) | N-1 protonated form [1] [%] | activity against GLP (in words) [2] | activity against SETD2 (in words) (SETD2) | activity against EZH2 (in words) (EZH2) | Structure (SMILES) | activity against all other methyltransferases in the panel (in words) [3] |
| --- | --- | --- | --- | --- | --- | --- |
| significant activity | 96.9 | equipotent against G9a and GLP | moderate inhibitory activity | moderate inhibitory activity | COc1cc2nc(N3CCCN(C)CC3)cc(NC3CCN(Cc4ccccc4)CC3)c2cc1OC [Compound 41] | inactive |
| significant activity | – | equipotent against G9a and GLP | moderate inhibitory activity | moderate inhibitory activity | COc1cc2nc(N3CCN(C)CC3)cc(NC3CCN(Cc4ccccc4)CC3)c2cc1OC [Compound 42] | inactive |
| – | 8.0 | dual G9a/GLP activity | – | – | COc1cc2nc(N3CCCN(C)CC3)nc(NC3CCN(Cc4ccccc4)CC3)c2cc1OC [Compound 1, BIX-01294, reference compound] | – |
